In US20240299377A1, “METHODS AND COMPOSITIONS FOR TREATING IRON DISORDERS” (BeyondSpring Pharmaceuticals, Inc., priority 2019, published 2024):

System: plasma haptoglobin levels
Assay: Plasma haptoglobin levels in non-metastatic breast cancer patients receiving TAC plus plinabulin (hematology safety assessments)
Format: in vivo, human
Excerpt: Method. Non-metastatic Breast Cancer patients receiving TAC (taxotere, doxorubicin, cyclophosphamide) also received plinabulin at a dose of 10 (n=15), 20 (n=15) or 30 (n=12) mg/m^2. Hematology safety assessments were done at predose, and post-dose plinabulin at Day 2, 3, 6, 7, 8, 9, 10, 11, 12, 13 and 15, as predefined prospectively per protocol. Plinabulin was given on Day 1 as a single dose per 21-day cycle.

CC(C)(C)c1[nH]cnc1/C=c1\[nH]c(=O)/c(=C/c2ccccc2)[nH]c1=O [Plinabulin, (3Z,6Z)-3-Benzylidene-6-{[5-(2-methyl-2-propanyl)-1H-imidazol-4-yl]methylene}-2,5-piperazinedione]
dose comparison for increasing plasma haptoglobin levels (30 mg/m^2 vs lower doses (10, 20 mg/m^2), p<0.01): most effective dose | mean (SD) increase of maximum haptoglobin levels from baseline (Plinabulin 30 mg/m^2 single dose on Day 1 of 21-day cycle with TAC, baseline mean (SD) 1.32 (0.453) g/L, p<0.0005): 1.61 (1.29) g/L | fold increase of maximum haptoglobin levels (Plinabulin 30 mg/m^2 single dose, versus baseline): more than 2 fold | duration of haptoglobin increase (single dose 30 mg/m^2, FIG. 1): > 3 weeks | time to haptoglobin (Hp) increase after plinabulin dosing (single dose 30 mg/m^2, P<0.03): ≤ 2 days
